For one data set, the system named is Male SD rats. Briefly: Survival and blood pressure after trauma-hemorrhage with 60% blood loss and no fluid resuscitation. It counts as in vivo, rat. Particulars: FIG. 21; trauma and major blood loss, crystalloid resuscitation after initial 3-hour interval; all untreated controls died within 3 hours. Here is the method: 16 rats were subjected to 60% removal of blood volume, using the same protocol found in Example 5.
Furthermore, crystalloid fluid resuscitation was administered following an initial 3-hour interval after the trauma and major blood loss, and rats were followed for 7 days. It has been observed that rats which survive for the initial 3 hours uniformly go on to survive for prolonged period of time and were then sacrificed. The survival rate is 68% for estrogen-treated rats, while all untreated control rats have died within the initial 3-hour interval (see FIG. 21).
Although E2 administration after trauma-hemorrhage (T-H) and fluid resuscitation produces salutary effects on organ functions, it was not known if E2 has any beneficial effects after major blood loss in the absence of fluid resuscitation. Male SD rats ˜250 g) underwent T-H (tissue trauma, BP 40 mmHg in 10 min and maintained at that BP by further blood withdrawal until maximum bleed out (MBO, 60% of total blood volume) occurred (45:t5 min)). E2 i.v. (1 mg/Kg, 0.4 ml/Kg volume, i.e., 120 μL/300 g body weight) or vehicle (cyclodextrin, CD) was then infused. No additional fluid was given for 3 hours. If rats survived, they received Ringer's lactate, 4× the MBO volume. A custom-fabricated 31p coil was placed on the surface of the rat's liver after laparotomy in another group, and spectra acquired using 4.7T NMR spectroscopy via a 31p coil in real time before and during hemorrhagic shock. Shock increased phosphomonoester and Pi with a concomitant decrease in β-ATP in both groups.

In data set [1] the test system is Sprague-Dawley adult male rats. Briefly: Traumatic brain injury (lateral fluid percussion): ICP, CPP and pbtO2 monitoring. It counts as in vivo, rat. To be noted: for intracranial pressure vs untreated vehicle controls: FIG. 44, measured over a 120 min period. Here is the method: Sprague-Dawley adult male rats were divided into 4 groups: vehicle, E2-SO4 (1 mg/kg), sham+vehicle and sham+E2-SO4; n=5/group. The TBI model was lateral fluid percussion injury (LFP), induced via a hydraulic pressure pulse to the anesthetized rat's exposed brain. This was introduced through a burr hole in the lateral skull prepared one day prior to LFP. A single iv dose of E2-SO4 or saline vehicle was administered 1 hr after LFP. Physiological parameters were measured 24 hr post-injury.
(§1) In a second experiment, the efficacy of E2-SO4 treatment for TBI in a lateral fluid percussion (LFP) model was examined. This involved 6 groups of rats (n=5/group). All rats received a craniectomy. Groups 1, 2, 4 and 5 received LFP injury. Groups 1 and 4 were treated with E2 (1 mg/kg) 1 hr post-injury, groups 2 and 5 were vehicle (Veh)-treated and groups 3 and 6 were sham. Groups 1-3 underwent intracranial pressure (ICP), cerebral perfusion pressure (CPP) and partial oxygen pressure (pbtO2) monitoring. Groups 4-6 underwent fludoexoyglucose (FDG)-PET/CT and diffusion tensor imaging (DTI) analysis on days 1 and 7 post-induction. Relative standard uptake values (SUV) of upper half of brain to central value, fractional anisotropy (FA) and apparent diffusion coefficient (ADC) maps were calculated.
FIG. 48B is a plot of cerebral perfusion pressure, which is a derivative of mean arterial pressure less ICP. […] The X axis is shown for an extended 2 hours to confirm stability for the various probes used.
The clinical manifestation of edema after TBI can be seen as increased intracranial pressure, with lower brain perfusion pressure and reduced oxygen tension. […] FIG. 44 compares treatments for TBI with hormones, measured over a 120 min period to control the effects of the invasive probe on pressures. The treatments are progesterone (T+progesterone: magenta), progesterone plus E2-SO4 (T+E+P: brown), E2-SO4 (T+E2SO4: red) and EE-3-SO4 (T+EE-3SO4: yellow).

The subject of another data set is injured brain. As to the kind of experiment: Traumatic brain injury: FDG-PET/CT, diffusion tensor imaging and MRI edema. Particulars: FIG. 43; day 1 and day 7 vs saline vehicle. Type of data set: in vivo, rat. Here is the method: as §1
Rats were either treated with E2 or a saline vehicle control, where treatment is administered 1 hour after injury. […] The former is the area of deranged nerves, while the latter constitutes intact nerves.

The subject of a further data set is Male Sprague Dawley rats. Briefly: 6 hour survival after soft tissue trauma and 60% hemorrhage without resuscitation. It counts as in vivo, rat. Particulars: for survival percentage for 6 hr / survival from 60% blood loss: no resuscitation; for survival from 60% blood loss: FIG. 47, 6 hour interval after MBO, all saline vehicle controls died. Here is the method:
Note that experimental conditions were sufficiently stringent that all saline vehicle control hemorrhaged rats died. The number of subject rats was vehicle control-20, E2-SO4-21, and EE3-SO4-20. Note that the time to begin the 6 hour interval starts after the maximum bleed out (MBO). It takes approximately 45 minutes to attain the MBO. Also please note that no resuscitation is given for the duration of the 6 hour test.
Survival studies with ethinyl 17α-estradiol-3-sulfate (EE3-SO4) in rats subjected to soft tissue trauma and 60% hemorrhage were performed as has been described for E2-SO4 and E2-cyclodextrin. Briefly, Male Sprague Dawley rats were anesthetized with isoflurane and received a 5 cm laparotomy. Cannulation was performed of 2 femoral arteries (one for bleeding and the one for blood pressure monitoring) and one femoral vein to administer drug or saline. Rats were bled to 62.9% total blood volume within 45 min with a mean arterial blood pressure of 40 mmHg achieved in 10 min and maintained at the pressure throughout the bleeding procedure. At the point of maximum bleed out (MBO), estrogen compounds were administered. Survival was monitored for 6 hours following MBO.
The optimum dose of EE-3-SO4 to promote rat survival for 6 hr was determined. The doses of 0.1 mg/kg (n=6), 0.3 mg/kg (n=6), 1.0 mg/kg (n=7) and 3.0 mg/kg (n=6) were used. The respective survival percentages were 16%, 50%, 87% and 50%, respectively (FIG. 41). Vehicle controls were matched for each group and the numbers of test rats were identical as well. No vehicle controls of any group survived for 6 hr (i.e., 100% death).

Data set [2] deals with mean arterial blood pressure (MAP). Briefly: Mean arterial blood pressure spike after iv administration in hemorrhaged rats. It counts as in vivo, rat. Particulars: for “spike” in mean arterial blood pressure (MAP) just after administration: rapid iv injection in ~1 min at MBO. The text has this: An additional practical matter to be resolved was removing or dampening the ever-present “spike” in mean arterial blood pressure (MAP) observed just after administration of EE-3-SO4, which was also observed with E2-CD and E2-SO4. Because this could be a threat to the hemorrhage patient by having this transient pressure rise destabilize and eject nascent hemostatic “plugs” in damaged vessels, a solution was developed for the potential problem. By giving the iv bolus of […] in a slightly longer interval over 5 min starting at MBO rather than a more rapid injection in ˜1 min (i.e., a “slow push”), the benefits of EE-3-SO4 remained while the MAP “spike” was removed. To determine the maximum reduction in the blood pressure spike studies were further conducted with a push over a 10 min period.

The test system of a further data set is isolated vascular rings. Briefly: Vascular reactivity of isolated vascular rings in a physiological bath. On the set-up: species or system rat or pig. Here is the method: Data to delineate the mechanism of action for EE-3-SO4 vis-à-vis effects on the cardiovascular system was acquired. While it is well known that estrogens act on the vascular system by a variety of mechanisms including vasorelaxation per se, specific confirmation of this fact for EE-3-SO4 was needed. […] Vessels are contracted by a variety of agents (i.e., endothelin-1, phenylephrine). The action(s) are measured with a force transducer and recorded digitally. […] (see FIG. 42).

Consider estrogen, for which the survival rate with Male SD rats is 68%.

Take `CC(=O)[C@H]1CC[C@H]2[C@@H]3CCC4=CC(=O)CC[C@]4(C)[C@H]3CC[C@]12C` [progesterone]: the “intracranial pressure vs untreated vehicle controls” value in data set [1] was “greatly reduce the pressure”.

Take `C#C[C@]1(O)CC[C@H]2[C@@H]3CCc4cc(OS(=O)(=O)O)ccc4[C@H]3CC[C@@]21C` [EE-3-SO4, ethinyl 17α-estradiol-3-sulfate]: the “edema in the injured brain” value in the data set with injured brain was “can reduce edema in the injured brain”. The “survival percentage for 6 hr” value is 16% in the data set on Male Sprague Dawley rats (0.1 mg/kg at MBO, no vehicle controls survived); 50% in the data set on Male Sprague Dawley rats (0.3 mg/kg at MBO); 87% in the data set with Male Sprague Dawley rats (1.0 mg/kg at MBO); 50% in the data set with Male Sprague Dawley rats (3.0 mg/kg at MBO). Also, the figures for the “survival from 60% blood loss” value in the data set with Male Sprague Dawley rats and in the data set on Male Sprague Dawley rats (listed as EE3-SO4) were 80% and “exhibits enhanced survival as compared to E2-sulfate”, respectively. In addition, the “optimum dose to promote rat survival for 6 hr” value in the data set with Male Sprague Dawley rats (doses 0.1, 0.3, 1.0 and 3.0 mg/kg tested) amounted to 1.0 mg/kg. Also, in data set [1], the “intracranial pressure vs untreated vehicle controls” value is on record as “greatly reduce the pressure”. For the same compound, the “reduction in the blood pressure spike with slow push” value in data set [2] (iv bolus over 5 min starting at MBO, no further benefit at 10 minutes) is reported as “complete reduction at 5 minutes”. Further, the ““spike” in mean arterial blood pressure (MAP) just after administration” value in data set [2] is on record as “observed”. Besides, the “potency on a molar equivalent basis” value in the data set with isolated vascular rings (FIG. 42, compared with E2-SO4) is given as “more potent than E2-SO4”. Besides, the “range of doses with linear response in promoting vessel relaxation” value in the data set on isolated vascular rings (vessels contracted by endothelin-1 or phenylephrine, Kreb's buffer) was 10 to 100000 nM.

Regarding `CN[C@@H](CCCNC(=N)N)C(=O)O` [methyl arginine], in the data set with isolated vascular rings (antagonist added to EE-3-SO4), the “antagonism of EE-3-SO4's vessel relaxation” value is “relaxation can be inhibited”.

With `C[C@]12CC[C@@H]3c4ccc(OS(=O)(=O)O)cc4CC[C@H]3[C@@H]1CC[C@@H]2OS(=O)(=O)O` [E2-SO4, 17-β-estradiol 3, 17 disulfate], in the data set on injured brain, the “edema in the injured brain” value is listed as “can reduce edema in the injured brain”. The “survival from 60% blood loss” value with Male Sprague Dawley rats was 66%. In addition, the “intracranial pressure vs untreated vehicle controls” value in data set [1] was “greatly reduce the pressure”. The “pbtO2 (brain tissue oxygen partial pressure)” value in data set [1] (TBI (LFP), 1 mg/kg iv 1 hr after injury, 24 hr post-injury, vehicle 15.8±1.3, sham 39.6) stood at 34.1±1.6 mmHg. In addition, the “ICP (intracranial pressure)” value in data set [1] (TBI (LFP), 1 mg/kg iv 1 hr after injury, measured 24 hr post-injury, TBI vehicle 17.4±0.5, sham 4.7) is listed as 7±0.4 mmHg. The ““spike” in mean arterial blood pressure (MAP) just after administration” value in data set [2] is “also observed”.

The values above are taken from patent publication US9359451B2, “Methods and compositions for treating trauma-hemorrhage using estrogen and derivatives thereof” (THE UAB RESEARCH FOUNDATION, priority 2012, dated 2016).
